Seven compounds from ChEMBL document CHEMBL1127206, “Preparation and in vitro biological evaluation of the enantiomers of the diydropyridine BMY 20014, a combination calcium and 1-adrenoreceptor antagonist” (Bioorg Med Chem Lett, 1993) can be followed below.

One test is filed under the species Rattus norvegicus. Briefly: Inhibition constant by its ability to inhibit (act through Ca++ ion channel) contractions induced by K+ depolarization in rat dorsal aorta. The class given is functional.
Test [1] is described as follows: [Ca2+] channel binding affinity was evaluated by its ability to displace [3H]-PN-200-110 in rat brain synaptosomes. The format is subcellular.
The target of test [2] is T1, Adrenergic receptor alpha-1 (Rattus norvegicus, UniProt P15823+P23944+P43140).
T1 sequence (P15823 whole entry): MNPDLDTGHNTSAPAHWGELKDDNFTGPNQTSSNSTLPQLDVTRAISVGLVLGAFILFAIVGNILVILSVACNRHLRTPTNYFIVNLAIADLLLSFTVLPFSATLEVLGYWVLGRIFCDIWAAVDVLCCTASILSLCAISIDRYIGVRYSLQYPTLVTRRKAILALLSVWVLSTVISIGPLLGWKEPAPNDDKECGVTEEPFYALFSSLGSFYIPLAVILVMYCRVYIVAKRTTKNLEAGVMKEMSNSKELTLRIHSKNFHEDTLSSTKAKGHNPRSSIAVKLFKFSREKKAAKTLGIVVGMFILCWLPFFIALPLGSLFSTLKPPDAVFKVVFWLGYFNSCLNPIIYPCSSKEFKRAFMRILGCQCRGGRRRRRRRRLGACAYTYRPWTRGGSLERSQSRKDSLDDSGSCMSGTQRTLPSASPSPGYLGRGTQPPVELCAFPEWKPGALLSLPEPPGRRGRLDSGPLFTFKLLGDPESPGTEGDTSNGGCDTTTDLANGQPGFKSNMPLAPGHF
T1 sequence (P23944 whole entry): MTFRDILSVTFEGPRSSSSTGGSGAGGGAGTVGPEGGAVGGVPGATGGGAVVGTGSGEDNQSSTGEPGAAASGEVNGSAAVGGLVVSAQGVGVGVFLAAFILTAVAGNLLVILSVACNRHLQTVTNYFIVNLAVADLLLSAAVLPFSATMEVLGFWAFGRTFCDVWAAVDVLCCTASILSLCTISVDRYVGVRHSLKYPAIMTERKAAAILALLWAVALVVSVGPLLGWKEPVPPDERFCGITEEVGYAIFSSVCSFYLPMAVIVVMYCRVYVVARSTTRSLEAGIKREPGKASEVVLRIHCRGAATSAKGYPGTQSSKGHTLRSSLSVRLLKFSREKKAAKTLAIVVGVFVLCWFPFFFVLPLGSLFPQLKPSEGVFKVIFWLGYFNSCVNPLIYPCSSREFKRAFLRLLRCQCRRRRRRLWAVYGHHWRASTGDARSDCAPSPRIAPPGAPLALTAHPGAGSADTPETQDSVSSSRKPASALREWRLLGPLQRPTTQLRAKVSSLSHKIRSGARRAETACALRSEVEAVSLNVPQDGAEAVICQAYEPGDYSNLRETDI
T1 sequence (P43140 whole entry): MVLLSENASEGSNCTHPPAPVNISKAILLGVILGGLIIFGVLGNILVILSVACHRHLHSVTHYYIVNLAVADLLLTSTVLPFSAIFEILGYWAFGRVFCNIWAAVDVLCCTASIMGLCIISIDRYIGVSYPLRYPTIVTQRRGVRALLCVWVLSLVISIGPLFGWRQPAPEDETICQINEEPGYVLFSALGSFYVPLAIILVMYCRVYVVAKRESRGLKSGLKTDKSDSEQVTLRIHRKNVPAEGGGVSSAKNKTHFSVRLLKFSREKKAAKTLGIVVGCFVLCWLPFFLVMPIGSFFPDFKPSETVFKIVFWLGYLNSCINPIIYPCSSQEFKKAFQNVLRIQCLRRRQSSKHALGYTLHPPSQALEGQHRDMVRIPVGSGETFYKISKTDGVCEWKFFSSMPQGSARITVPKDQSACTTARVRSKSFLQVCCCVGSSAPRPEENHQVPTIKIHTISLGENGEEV
The experiment in a line: Alpha-1 adrenergic receptor binding affinity was evaluated by its ability to displace [3H]prazosin in rat brain synaptosomes. The class given is subcellular.

The next test is filed under the species Oryctolagus cuniculus. The experiment in a line: Inhibition constant by its ability to inhibit contractions induced by phenylephrine in rabbit dorsal aorta. The format is functional.

In the case of `CO/C(O)=C1\C(C)=NC(C)=C(C(=O)n2ccnc2)[C@H]1c1cccc([N+](=O)[O-])c1`, the Kb in the test filed under Rattus norvegicus amounted to 3.6 nM. For the same compound, the Ki is 7.8 nM in test [1] and over 1000 nM in test [2].

In turn, `CO/C(O)=C1\C(C)=NC(C)=C(C(=O)n2ccnc2)[C@@H]1c1cccc([N+](=O)[O-])c1` registered a Kb in the test filed under Rattus norvegicus of 31 nM. Moreover, the Ki is 181 nM in test [1] and over 1000 nM in test [2].

For `COC(=O)C1=C(C)NC(C)=C(C(=O)NCCCN2CCN(c3ccccc3OC)CC2)[C@@H]1c1cccc([N+](=O)[O-])c1`, the Kb in the test listed under Rattus norvegicus is 107 nM; in the test listed under Oryctolagus cuniculus, 50 nM. The Ki was found to be 338 nM in test [1] and 36 nM in test [2].

For the compound `COc1cc2nc(N3CCN(C(=O)c4ccco4)CC3)nc(N)c2cc1OC` [PRAZOSIN], the figures for the Kb in the test listed under Rattus norvegicus and in the test listed under Oryctolagus cuniculus were over 1000 nM and 1.6 nM, respectively. In test [1], this compound returned a Ki of over 1000 nM.

Turning to `COC(=O)C1=C(C)NC(C)=C(C(=O)OC)C1c1ccccc1[N+](=O)[O-]` [NIFEDIPINE], the values for the Kb in the test listed under Rattus norvegicus and in the test listed under Oryctolagus cuniculus were 0.5 nM and over 1000 nM, respectively. For the same compound, the results for the Ki in test [1] and in test [2] were 0.53 nM and over 1000 nM, respectively.

For the compound `CO/C(O)=C1\C(C)=NC(C)=C(C(=O)NCCCN2CCN(c3ccccc3OC)CC2)C1c1cccc([N+](=O)[O-])c1` (centres undefined), the Kb in the test listed under Rattus norvegicus amounted to 6.3 nM. Also, the figures for the Ki in test [1] and in test [2] were 35 nM and 13 nM, respectively.

With `COC(=O)C1=C(C)NC(C)=C(C(=O)NCCCN2CCN(c3ccccc3OC)CC2)[C@H]1c1cccc([N+](=O)[O-])c1`, the Kb in the test listed under Rattus norvegicus was 2.9 nM; in the test listed under Oryctolagus cuniculus it was 8.3 nM. The values for the Ki in test [1] and in test [2] were 16 nM and 4.6 nM, respectively.
